According to patent US20260070946A1, “TYR PEPTIDE COMPOSITIONS AND METHODS FOR USE” (UNIVERSITY OF MIAMI, priority 2022, published 2026):
Where two headings read alike, the source gives them in different places. Residues, ends and D or L forms follow the SMILES beside them. No end group written: not given here.

What was measured:
HT1080 cells [1] = format: cell-based, human
Description: Analysis of anti-proliferative activity in HT1080 cells was examined.

HT1080 cells [2] = experiment: Rapid cell proliferation assay, HT1080, cyclic versus non-cyclic TPA; format: cell-based; details: 40 μg/ml
Description: Rapid cell proliferation assay was carried out using a Rapid Cell Proliferation Kit, EMD Biosciences (QIA127) (Galoian K, Tumor Biology 32 (4): 745-51, 2011). Cells were seeded at 5×10^4 cells/100 μl culture in the multi-well plate and incubated overnight at 37° C. in 5% CO2 incubator. The actual assay was performed the next day. The rapid cell proliferation assay is based on the activity of mitochondrial enzymes active in viable cells. PRP-1 was added to corresponding wells just after seeding, before overnight incubation. The colorimetric 96-well assay measures colorful product like formazan because of WST-1 tetrazolium salt cleavage by the mitochondrial dehydrogenases. The formazan formation is then quantified by measuring the change in absorbance at 450 nm in a microplate reader. The activity of mitochondrial dehydrogenases is proportional to cell number. No washing, harvesting, or solubilization steps are required. In this series of experiments, PRP-1 was added to corresponding wells immediately after seeding and cell attachment followed by overnight incubation according to the manufacturer's instructions.
The cyclic version was created to protect the peptide from being degraded by proteases in vivo. The cyclic peptide was tested for its potency in a rapid cell proliferation assay using HT1080 cells as described above using 40 μg/ml TPA or cyclic TPA in the assay.

[3] = test system: HT1080 fibrosarcoma cells; experiment: Survival experiment with HT1080 cells derived from doxorubicin relapsed mice; format: in vivo
Description: Additional survival experiments were undertaken. HT1080 fibrosarcoma cells were used in this experiment that derived from doxorubicin relapsed mice. The cells from tumor were excised as single cell suspension for quick isolation from tissue for subsequent luminescent labeling, then they were cultured in vitro and re-transplanted.

[4] = Acute and cumulative toxicity in mice
[5] = test system: cardiomyocyte cell line AC16; experiment: Cardiotoxicity in cardiomyocyte cell line AC16; format: cell-based; details: 24 hours; TPA 40 μg/mL, Doxo 2 mM
Description: Cardiotoxicity results of TPA, Doxo and TPA+Doxo combo were analyzed in cardiomyocyte cell line AC16. Cells were treated 24 hours with C (control, DMSO 0.5%), TPA (40 μg/mL), Doxo (Doxorubicin, 2 mM), and TPA (40 μg/mL)+Doxo (2 mM). (FIG. 10). […] Thus, overall survival increases observed in vivo should be attributed to TPA's ability to target and eliminate cancer stem cells.

[6] = test system: chondrosarcoma and fibrosarcoma
HT1080 fibrosarcoma = HT1080 fibrosarcoma nude mice model (IVIS, tumor volume, tumor weight); format: in vivo
Description: A nude mice model was used in which animals receive orthotopic inoculation of highly metastatic JJ012 chondrosarcoma or HT1080 fibrosarcoma tumor cell lines or primary cell lines labeled with extremely red bright fluorescent protein PTDT-N1.
Disease progression is evaluated through clinical signs and animal-relevant responses, tumor size analysis, real-time fluorescence and bioluminescence imaging (IVIS) of both in vivo and ex vivo disease-specific tumor microenvironments and lung metastases.
Monitoring of the solid tumors is as follows (when visible, tumors will be measured by noninvasive imaging or caliper at least weekly). Experimental endpoints depend on the site of transplantation. Mice are euthanized before they reach a tumor volume of 2 cm^3 for a single or multiple tumors. The overriding consideration for humane endpoints of these oncological experiments will be the overall health of the animal. Animals are weighed at least once a week for fast growing tumors (reaching endpoint before 3 months after transplantation) and at least once a month for slow growing tumors. Any tumor-bearing animal are euthanized immediately if the tumor impairs ambulation or eating. […] Animals bearing tumors in such locations are euthanized before the tumors reach the above-stated dimensions.
Tumor-bearing mice are photographed either at the experimental endpoint or using noninvasive imaging technologies to monitor tumor progression. Also contemplated is imaging in vivo for evidence of tumor progression (BLI, IVIS), and observance of clinical signs of metastases (listlessness, weight loss, or hunched posture). Tumors and lungs are harvested to confirm presence of lung metastases and further analyzed: tumors are weighed, photographed, and sectioned into samples designated half for 10% formalin fixation analysis or half for snap-freeze in liquid nitrogen for future analysis.

HOXC13 proteins = experiment: Inhibition of HOXC13 proteins
ALDHA = ALDHA mRNA expression in 3D HT1080 lysates; format: cell-based; details: 3D lysates, TPA 20 μg/mL
Description: (§1) Experiments herein (FIG. 13) indicated there was statistically significant inhibition in 3DHT1080 cell line for EZH2, and its targets, embryonic transcription factor Nanog (Villasante et al., Cell Cycle. 10 (9): 1488-498, 2011), and cancer stem cell marker […], ALDH1A1 (Li et al., Cancer Prev Res (Phila). 25 (3): 484-491 2012). Aldehyde dehydrogenase (ALDH) is an established marker of CSCs in several neoplasms. Cells expressing high levels of ALDH have been isolated in a number of human sarcoma cell lines, including the human chondrosarcoma SW 1353 cell line (Lohberger et al., PLOS One 7).

EZH2 = EZH2 mRNA expression in 3D HT1080 lysates; format: cell-based; details: 3D lysates, TPA 20 μg/mL
Description: as §1

[7] = test system: osteosarcoma cell line KHOS; experiment: Rapid cell proliferation assay, KHOS; format: cell-based; details: 48 h
Description: (§2) The effects of TPA on three osteosarcoma cell lines OSA, KHOS, MNNG was analyzed (FIG. 11). Rapid cell proliferation was measured by a Rapid Cell Proliferation Kit, EMD Biosciences (QIA127). Cells were seeded at 5×10^4 cells/100 μl culture in a multi-well plate and incubated overnight at 37° C. in 5% CO2 incubator. The actual assay was performed the next day. The rapid cell proliferation assay is based on the activity of mitochondrial enzymes active in viable cells. TPA was added to corresponding wells just after seeding, and before overnight incubation. The 96-well assay measures colorimetric product like formazan because of WST-1 tetrazolium salt cleavage by the mitochondrial dehydrogenases. TPA exerted its effect in all cell lines 48 hours after the incubation. […] (FIG. 11)

fibrosarcoma spheroids = experiment: Neutral red cytotoxicity assay; format: cell-based
[8] = test system: 3D fibrosarcoma spheroids; experiment: Self-renewal assay with 3D fibrosarcoma; format: cell-based
[9] = test system: osteosarcoma cell line MNNG; experiment: Rapid cell proliferation assay, MNNG; format: cell-based; details: only the highest dose of 40 μg/ml, 48 hours
Description: as §2

Nanog protein = Nanog protein expression in 3D HT1080 cells, western blot; format: cell-based; details: 40 μg/ml
[10] = mouse, in vivo
Nanog = Nanog mRNA expression in 3D HT1080 lysates; format: cell-based; details: 3D lysates, TPA 20 μg/mL
Description: as §1

T47-D (ER+) cells = details: cited from earlier work
[11] = test system: MDA 231 (ER-) breast cell carcinoma cells; details: cited from earlier work

SETPEPKGPADPELY [TPA 1, SETPEPKGPADPELY]
IC50, anti-proliferative activity (HT1080 cells [1]): 21 µg/mL | concentration of maximum effect (HT1080 cells [1]; HT1080 human fibrosarcoma, dose response): 40 µg/mL | effect on cancer stem cell spheroids (HT1080 cells [1]; visual, maximum effect with 40 μg/ml): destruction of cancer stem cell spheroids in dose response manner

CC(C)C[C@@H]1NC(=O)[C@H](CCC(=O)O)NC(=O)[C@@H]2CCCN2C(=O)[C@H](CC(=O)O)NC(=O)[C@H](C)NC(=O)[C@@H]2CCCN2C(=O)CNC(=O)[C@H](CCCCN)NC(=O)[C@@H]2CCCN2C(=O)[C@H](CCC(=O)O)NC(=O)[C@@H]2CCCN2C(=O)[C@H]([C@@H](C)O)NC(=O)[C@H](CCC(=O)O)NC(=O)[C@H](CO)NC(=O)[C@H](Cc2ccc(OP(=O)(O)O)cc2)NC1=O [cyclic TPA, Cyclo(Ser-Glu-Thr-Pro-Glu-Pro-Lys-Gly-Pro-Ala-Asp-Pro-Glu-Leu-Tyr (PO3H2))] (HELM PEPTIDE1{A.D.P.E.L.[O=C([C@H](Cc1ccc(OP(=O)(O)O)cc1)N[*:1])[*:2]].S.E.T.P.E.P.K.G.P}$PEPTIDE1,PEPTIDE1,1:R1-15:R2$$$V2.0)
improvement over non-cyclic TPA (HT1080 cells [2]): ~1.5 fold | inhibition of cell growth compared to control (HT1080 cells [2]): over 50%

COc1cccc2c1C(=O)c1c(O)c3c(c(O)c1C2=O)C[C@@](O)(C(=O)CO)C[C@@H]3O[C@H]1C[C@H](N)[C@H](O)[C@H](C)O1 [doxorubicin]
median survival ([3]; 10 mice per group, control (PBS) 21 days): 28 days | overall Median Survival advantage ([3]; mice re-transplanted with cells from doxorubicin relapsed tumors): 33%

SETPEPKGPADPELY [TPA, SETPEPKGPADPELY]
cumulative toxicity ([4]; following 14 days of TPA treatment): no cumulative toxicity | acute toxicity (change in weight or behavior) ([4]; up to 100 mg/kg): No acute toxicity | cytotoxicity in cardiomyocytes [5]: did not show any toxicity | inhibition of chondrosarcoma and fibrosarcoma growth [6]: 80-90% | tumor volume versus Control (HT1080 fibrosarcoma; by day 18): trend toward decreased tumor volume | tumor weights at necropsy versus Control (HT1080 fibrosarcoma; day after Day 14): no difference in tumor weights | IVIS tumor growth compared to Control (HT1080 fibrosarcoma; through Day 14, IVIS % Growth p<0.001): decreased growth | inhibition of HOXC13 proteins (HOXC13 proteins): inhibits in a statistically significant manner | ALDHA mRNA fold decrease versus control (ALDHA): 3.22 fold | reduced expression of ALDHA (ALDHA; normalized to GAPDH mRNA): 69% | EZH2 mRNA fold decrease versus control (EZH2): 5 fold | reduced expression of EZH2 (EZH2; normalized to GAPDH mRNA): 80% | growth inhibition [7]: 40% | cytotoxic effect relative to doxorubicin (DO) (fibrosarcoma spheroids; 40 μg/ml): almost that in cytotoxic doxorubicin | viability of fibrosarcoma spheroids (fibrosarcoma spheroids; increased concentration of TPA peptide): dose response decrease in viability | effect on spheroids in comparison to not treated control ([8]; 20 μg/ml): destruction and shrinkage of the spheroid | viability of the shrunken spheroids by viability assay ([8]; 20 μg/ml): non viable | spheroid formation ([8]; 40 μg/ml): completely prevented spheroid formation | growth inhibition [9]: inhibited growth | inhibition of Nanog protein in comparison with control (Nanog protein): 47% | blood count and chemistry [10]: no change in blood count and chemistry | Nanog mRNA fold decrease versus control (Nanog): 7.69 fold | reduced expression of Nanog (Nanog; normalized to GAPDH mRNA): 87%

AGAPEPAEPAQPGVY [PRP-1]
inhibitory effect on cell growth (T47-D (ER+) cells): no inhibitory effect | inhibition of cell growth ([11]; 0.5 μg/ml PRP-1): 71% | inhibition of cell growth ([11]; 1 μg/ml PRP-1): 63% | inhibition of cell growth ([11]; 10 μg/ml): 44%
